Each structure is given as a SMILES string. Some results are limits rather than exact numbers.

These results are taken from US5580871A, “4-Heteroaryl- 1,4-dihydropyridine compounds with calcium agonist and alpha1 -antagonist activity” (The Dupont Merck Pharmaceutical Company, priority 1995, dated 1996).

Test [1] concerns the target T1, Ca^2+ channel (Rattus norvegicus, UniProt P22002).
T1 construct: rat cardiac microsomes (source of Ca^2+ channels); from tissue; host or cells: rat cardiac microsomes
Kind of test: [3H]-Nitrendipine binding assay (affinity for calcium channels). Particulars: rat cardiac microsomes; 0.5 nM [3H]-nitrendipine, 60 min, 25° C. The procedure:
[^3 H]-Nitrendipine binding assay was carried out according to the method described by G. T. Bolger, et al., Biochem. Biophys. Res. Comm., 104, 1604-1609, (1982). The reaction mixture contained rat cardiac microsomes (source of Ca^2+ channels), 0.5 nM [^3 H]-nitrendipine with or without potential displacer in Tris buffer. The mixture was incubated for 60 minutes at 25° C. and subsequently terminated by rapid filtration through a glass fiber-filter. Membrane-bound [^3 H]-nitrendipine trapped in the filter was quantitated by scintillation counting. The inhibitory concentration (IC50) of potential displacer which gives 50% displacement of the total specifically bound [^3 H]-nitrendipine is presented as a measure of the affinity of such compound for the Ca^2+ channel.

For test [2], the system named is guinea pig left atria. Kind of test: Positive inotropic effect in guinea pig left atria. Conditions: Cavia porcellus; for EC50: concentration that increases developed tension (DT) by 50% above the control DT, left atria paced at 2 Hz, 37° C.; for Emax: ratio of the maximum effect of the test compound to that of Bay K8644, read-out: Intrinsic Activity. The procedure: Guinea pigs are killed by cervical dislocation. The left atria are removed and mounted at 1 gm resting tension in tissue baths containing oxygenated Krebs bicarbonate solution which is kept at 37° C. The left atria are electrically paced at 2 Hz with square wave pulses of 1 msec duration. The voltage is set at 1.5×threshold level.
After a one hour equilibration period, control values for developed tension (DT, gm) are recorded. Test compounds are then added to the baths, in a cumulative manner to a maximum concentration of 10^-4, to obtain a concentration-response curve. Treatment values of DT are obtained after the drug effect has reached a plateau and the exposure time for each concentration is 5-8 minutes. Percent change of the treatment value from the control value is calculated at each concentration of the test compound.

The target in test [3] is alpha1-adrenoceptor. As to the kind of experiment: [3H]-Prazosin binding assay (affinity for alpha1-adrenoceptors). Particulars: partially purified rat brain membranes; 0.2 nM [3H]-prazosin, 60 min, 25° C. The procedure: The [^3 H]-prazosin binding assay was carried out according to the method described by Timmermans, P. B. M. W. M., Schoop, A. M. C., and Van Zwieten, P. A., Biochem. Pharmacol., 31, 899-905, (1982). The reaction mixture contained partially purified rat brain membranes (source of alpha1 -adrenoceptors), 0.2 nM [^3 H]-prazosin with or without potential displacer in Tris buffer. The mixture was incubated for 60 minutes at 25° C. and subsequently terminated by rapid filtration through glass fiber-filter. Receptor-bound [^3 H]-prazosin trapped in the filter was quantitated by scintillation counting. The inhibitory concentration (IC50) of potential displacer which gives 50% displacement of the total specifically bound [^3 H]-prazosin is presented as a measure of the affinity of such compound for the alpha1 -adrenoceptor.

T1 sequence (P22002 whole entry, other chains not shown): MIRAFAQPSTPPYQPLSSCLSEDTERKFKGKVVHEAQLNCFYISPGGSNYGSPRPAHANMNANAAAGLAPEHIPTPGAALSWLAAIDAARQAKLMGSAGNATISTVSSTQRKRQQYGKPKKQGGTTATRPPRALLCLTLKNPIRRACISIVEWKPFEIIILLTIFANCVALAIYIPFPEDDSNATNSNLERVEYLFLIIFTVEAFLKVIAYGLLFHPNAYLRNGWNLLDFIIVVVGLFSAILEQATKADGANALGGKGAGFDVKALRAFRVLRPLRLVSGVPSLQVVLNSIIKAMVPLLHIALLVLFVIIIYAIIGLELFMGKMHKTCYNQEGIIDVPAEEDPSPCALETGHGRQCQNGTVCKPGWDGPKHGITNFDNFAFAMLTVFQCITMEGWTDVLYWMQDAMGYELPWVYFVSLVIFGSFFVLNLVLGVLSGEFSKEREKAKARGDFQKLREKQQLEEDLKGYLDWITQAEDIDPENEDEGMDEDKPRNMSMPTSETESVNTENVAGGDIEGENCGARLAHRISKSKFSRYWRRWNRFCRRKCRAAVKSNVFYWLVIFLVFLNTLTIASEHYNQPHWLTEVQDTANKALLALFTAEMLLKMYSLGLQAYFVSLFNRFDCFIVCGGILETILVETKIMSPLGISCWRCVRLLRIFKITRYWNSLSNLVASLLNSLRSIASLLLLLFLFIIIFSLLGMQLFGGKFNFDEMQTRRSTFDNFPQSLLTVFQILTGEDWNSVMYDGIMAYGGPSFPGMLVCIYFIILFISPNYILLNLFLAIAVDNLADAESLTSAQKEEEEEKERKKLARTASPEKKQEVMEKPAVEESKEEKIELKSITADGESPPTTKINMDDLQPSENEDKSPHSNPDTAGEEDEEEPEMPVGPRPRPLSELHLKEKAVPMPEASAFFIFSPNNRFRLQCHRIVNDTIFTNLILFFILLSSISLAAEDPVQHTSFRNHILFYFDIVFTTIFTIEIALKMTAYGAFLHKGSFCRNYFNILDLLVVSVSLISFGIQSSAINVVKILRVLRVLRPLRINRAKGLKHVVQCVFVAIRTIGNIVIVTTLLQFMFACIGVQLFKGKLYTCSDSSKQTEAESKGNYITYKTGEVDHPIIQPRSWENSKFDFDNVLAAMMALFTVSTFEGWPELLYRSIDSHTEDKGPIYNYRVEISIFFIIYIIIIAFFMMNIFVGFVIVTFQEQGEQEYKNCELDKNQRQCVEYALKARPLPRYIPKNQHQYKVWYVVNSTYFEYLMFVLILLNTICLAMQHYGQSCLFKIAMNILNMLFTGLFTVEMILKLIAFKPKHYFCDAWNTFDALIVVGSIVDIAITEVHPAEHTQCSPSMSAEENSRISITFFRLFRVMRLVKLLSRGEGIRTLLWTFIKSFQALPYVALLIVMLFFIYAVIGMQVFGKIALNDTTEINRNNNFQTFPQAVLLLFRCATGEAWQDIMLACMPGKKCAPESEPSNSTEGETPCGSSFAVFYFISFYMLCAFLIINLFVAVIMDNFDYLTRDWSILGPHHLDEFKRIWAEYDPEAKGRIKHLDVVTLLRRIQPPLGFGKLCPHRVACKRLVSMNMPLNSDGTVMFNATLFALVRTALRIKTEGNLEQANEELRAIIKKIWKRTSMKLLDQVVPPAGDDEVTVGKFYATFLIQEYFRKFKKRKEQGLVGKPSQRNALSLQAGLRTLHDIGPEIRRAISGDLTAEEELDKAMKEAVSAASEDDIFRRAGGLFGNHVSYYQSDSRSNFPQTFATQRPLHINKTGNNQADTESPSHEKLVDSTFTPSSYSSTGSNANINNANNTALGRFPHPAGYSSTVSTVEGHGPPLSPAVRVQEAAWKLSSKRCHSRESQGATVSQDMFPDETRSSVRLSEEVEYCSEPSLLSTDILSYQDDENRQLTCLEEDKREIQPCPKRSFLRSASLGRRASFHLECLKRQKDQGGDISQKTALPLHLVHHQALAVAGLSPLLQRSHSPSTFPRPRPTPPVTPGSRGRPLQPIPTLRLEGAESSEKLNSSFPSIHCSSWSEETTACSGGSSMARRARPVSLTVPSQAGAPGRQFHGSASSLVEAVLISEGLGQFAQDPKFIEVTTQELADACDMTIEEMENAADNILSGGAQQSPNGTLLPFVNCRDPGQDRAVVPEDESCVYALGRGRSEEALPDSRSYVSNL
T1 sequence (P54290 25-944 partner limits assumed, other chains not shown): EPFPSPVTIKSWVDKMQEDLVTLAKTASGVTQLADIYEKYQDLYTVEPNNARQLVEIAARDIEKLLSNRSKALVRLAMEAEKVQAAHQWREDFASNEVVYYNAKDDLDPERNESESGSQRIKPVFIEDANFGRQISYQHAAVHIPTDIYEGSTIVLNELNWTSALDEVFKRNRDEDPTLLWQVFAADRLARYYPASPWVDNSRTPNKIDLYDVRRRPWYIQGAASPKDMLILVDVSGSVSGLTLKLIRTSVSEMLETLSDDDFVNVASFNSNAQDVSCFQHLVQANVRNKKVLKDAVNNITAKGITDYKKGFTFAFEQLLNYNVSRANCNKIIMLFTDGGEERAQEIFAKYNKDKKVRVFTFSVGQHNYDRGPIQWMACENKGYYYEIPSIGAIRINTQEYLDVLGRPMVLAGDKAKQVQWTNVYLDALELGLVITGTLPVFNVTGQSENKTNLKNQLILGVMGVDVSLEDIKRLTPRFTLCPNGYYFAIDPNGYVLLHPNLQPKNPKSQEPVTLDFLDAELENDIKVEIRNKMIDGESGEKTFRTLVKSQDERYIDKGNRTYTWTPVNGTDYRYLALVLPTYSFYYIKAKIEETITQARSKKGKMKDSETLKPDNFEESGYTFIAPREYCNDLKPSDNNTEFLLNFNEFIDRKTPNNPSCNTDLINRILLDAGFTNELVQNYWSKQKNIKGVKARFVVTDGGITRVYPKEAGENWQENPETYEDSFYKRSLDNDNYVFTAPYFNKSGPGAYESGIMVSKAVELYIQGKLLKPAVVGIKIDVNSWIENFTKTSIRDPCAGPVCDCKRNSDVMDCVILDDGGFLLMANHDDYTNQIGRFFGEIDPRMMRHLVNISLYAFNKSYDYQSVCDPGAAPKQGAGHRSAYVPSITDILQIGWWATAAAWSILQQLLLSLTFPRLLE
T1 sequence (P54290 945-1091 partner limits assumed, other chains not shown): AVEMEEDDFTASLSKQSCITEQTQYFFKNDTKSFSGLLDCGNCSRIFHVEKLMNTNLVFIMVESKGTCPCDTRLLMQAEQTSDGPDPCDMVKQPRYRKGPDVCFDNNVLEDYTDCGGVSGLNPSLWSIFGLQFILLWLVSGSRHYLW

Take `CC1=C(C(=O)OCCCCN2CCN(c3ncccn3)CC2)C(c2cccnc2)C([N+](=O)[O-])=C(C)N1` (stereo not shown) [Example 53, 1,4-Dihydro-2,6-dimethyl-5-nitro-4-(3-pyridinyl)-3-pyridinecarboxylic acid: {4-[4-(2-pyrimidinyl)-1-piperazinyl]butyl} ester]: the IC50 is 4400 nM in test [1] and 400 nM in test [3]. Also, the EC50 in test [2] came out at 25000 nM. Moreover, the Emax in test [2] turned out to be 189%.
Regarding `CC1=C(C(=O)OCCCCN2CCN(c3ncccn3)CC2)C(c2cccc3nonc23)C([N+](=O)[O-])=C(C)N1` (stereo not shown) [Example 54], the figures for the IC50 in test [1] and in test [3] were 290 nM and 820 nM, respectively. The EC50 in test [2] is > 100000 nM. In test [2], the Emax worked out at 21%.
Turning to `COc1ccccc1N1CCN(CCOC(=O)C2=C(C)NC(C)=C([N+](=O)[O-])C2c2ccoc2)CC1` (stereo not shown) [Example 55, 4-(3-Furanyl)-1,4-dihydro-2,6-dimethyl-5-nitro-3-pyridinecarboxylic acid, {2-[4-(2-methoxyphenyl)-1-piperazinyl]ethyl} ester], the IC50 in test [1] turned out to be 5100 nM. In test [2], the EC50 came to 1000 nM and the Emax was 169%. Further, the IC50 in test [3] is 100 nM.
As for `CC1=C(C(=O)OCCN2CCN(c3ncccn3)CC2)C(c2ccoc2)C([N+](=O)[O-])=C(C)N1` (stereo not shown) [Example 56, 4-(3-Furanyl)-1,4-dihydro-2,6-dimethyl-5-nitro-3-pyridinecarboxylic acid, {2-[4-(2-pyrimidinyl)-1-piperazinyl]ethyl} ester], the figures for the IC50 in test [1] and in test [3] were 4300 nM and 5200 nM, respectively. The molecule further gave an EC50 in test [2] of 430 nM. Besides, the Emax in test [2] worked out at 171%.
The corresponding values for `COc1ccccc1N1CCN(CCCCOC(=O)C2=C(C)NC(C)=C([N+](=O)[O-])C2c2cccn2C)CC1` (stereo not shown) [Example 57, 1,4-Dihydro-2,6-dimethyl-4-(1-methyl-1H-pyrrol-2-yl)-5-nitro-3-pyridinecarboxylic acid, {4-[4-(2-methoxyphenyl)1-piperazinyl]butyl} ester] are 1300 nM, 33 nM, 2300 nM and 110%.
Take `CC1=C(C(=O)OCCCCN2CCN(c3ncccn3)CC2)C(c2cccn2C)C([N+](=O)[O-])=C(C)N1` (stereo not shown) [Example 58, 1,4-Dihydro-2,6-dimethyl-4-(1-methyl-1H-pyrrol-2-yl)-5-nitro-3-pyridinecarboxylic acid, {4-[4-(2-pyrimidinyl)-1-piperazinyl]butyl} ester]: in test [1], the IC50 came to 1800 nM. Besides, in test [2], the EC50 is 840 nM and the Emax is 195%. Besides, the IC50 in test [3] was found to be 750 nM.
`COc1ccccc1N1CCN(CCOC(=O)C2=C(C)NC(C)=C([N+](=O)[O-])C2c2ccco2)CC1` (stereo not shown) [Example 59]: in test [1], the IC50 was found to be 1500 nM. Also, in test [2], the EC50 is 2700 nM and the Emax was 98%. This molecule also showed an IC50 in test [3] of 100 nM.
As for `CC1=C(C(=O)OCCN2CCN(c3ncccn3)CC2)C(c2ccco2)C([N+](=O)[O-])=C(C)N1` (stereo not shown) [Example 60], in test [1], the IC50 worked out at 2000 nM. Also, in test [2], the EC50 stood at 1600 nM and the Emax is 140%. The molecule further came in with a concentration for half-maximal inhibition (IC50) in test [3] of 5900 nM.
As for `COc1ccccc1N1CCN(CCOC(=O)C2=C(C)NC(C)=C([N+](=O)[O-])C2c2cccnc2)CC1` (stereo not shown) [Example 61], the IC50 in test [1] was found to be 1300 nM. Also, in test [2], the EC50 came to 1500 nM and the Emax was determined as 164%. The IC50 in test [3] was 25 nM.
As to `CC1=C(C(=O)OCCN2CCN(c3ncccn3)CC2)C(c2cccnc2)C([N+](=O)[O-])=C(C)N1` (stereo not shown) [Example 62], the IC50 in test [1] came out at 3700 nM. Moreover, in test [2], the EC50 was > 100000 nM and the Emax came to 48%. Moreover, the IC50 in test [3] was > 1000 nM.
With `COc1ccccc1N1CCN(CCCCOC(=O)C2=C(C)NC(C)=C([N+](=O)[O-])C2c2cccs2)CC1` (stereo not shown) [Example 63], the IC50 in test [1] came out at 2200 nM. Further, in test [2], the EC50 is 12000 nM and the Emax was found to be 75%. In addition, the IC50 in test [3] was found to be 60 nM.
The corresponding values for `CC1=C(C(=O)OCCCCN2CCN(c3ncccn3)CC2)C(c2cccs2)C([N+](=O)[O-])=C(C)N1` (stereo not shown) [Example 64] are 1200 nM, 3400 nM, 76% and 1200 nM.
The corresponding values for `COc1ccccc1N1CCN(CCOC(=O)C2=C(C)NC(C)=C([N+](=O)[O-])C2c2ccsc2)CC1` (stereo not shown) [Example 65, 1,4-Dihydro-2,6-dimethyl-5-nitro-4-(3-thienyl)-3-pyridinecarboxylic acid, {2-[4-(2-methoxyphenyl)-1-piperazinyl]ethyl} ester] are 860 nM, 1000 nM, 225% and 180 nM.
With `CC1=C(C(=O)OCCN2CCN(c3ncccn3)CC2)C(c2ccsc2)C([N+](=O)[O-])=C(C)N1` (stereo not shown) [Example 66, 1,4-Dihydro-2,6-dimethyl-5-nitro-4-(3-thienyl)-3-pyridinecarboxylic acid, {2-[4-(2-pyrimidinyl)-1-piperazinyl]ethyl} ester], in test [1], the IC50 worked out at 950 nM. In test [2], the EC50 was determined as 850 nM and the Emax came out at 210%. In test [3], this molecule had an IC50 of 6000 nM.
The corresponding values for `COc1ccccc1N1CCN(CCCCOC(=O)C2=C(C)NC(C)=C([N+](=O)[O-])C2c2ccoc2)CC1` (stereo not shown) [Example 67] are 3500 nM, 24000 nM, 86% and 63 nM.
For `CC1=C(C(=O)OCCCCN2CCN(c3ncccn3)CC2)C(c2ccoc2)C([N+](=O)[O-])=C(C)N1` (stereo not shown) [Example 68, 4-(3-Furanyl)-1,4-dihydro-2,6-dimethyl-5-nitro-3-pyridinecarboxylic acid, {4-[4-(2-pyrimidinyl)-1-piperazinyl]butyl} ester], the IC50 in test [1] worked out at 2700 nM. Also, in test [2], the EC50 came out at 3700 nM and the Emax came to 147%. The IC50 in test [3] was found to be 850 nM.
As to `COc1ccccc1N1CCN(CCCCOC(=O)C2=C(C)NC(C)=C([N+](=O)[O-])C2c2ccco2)CC1` (stereo not shown) [Example 69], the half-inhibitory concentration (IC50) in test [1] turned out to be 2000 nM. Besides, in test [2], the EC50 came to 62000 nM and the Emax was 60%. The molecule further displayed an IC50 in test [3] of 35 nM.
The corresponding values for `CC1=C(C(=O)OCCCCN2CCN(c3ncccn3)CC2)C(c2ccco2)C([N+](=O)[O-])=C(C)N1` (stereo not shown) [Example 70, 4-(2-Furanyl)-1,4-dihydro-2,6-dimethyl-5-nitro-3-pyridinecarboxylic acid, {4-[4-(2-pyrimidinyl)-1-piperazinyl]butyl} ester] are 2000 nM, 5000 nM, 132% and 840 nM.
On to `COc1ccccc1N1CCN(CCCCOC(=O)C2=C(C)NC(C)=C([N+](=O)[O-])C2c2ccsc2)CC1` (stereo not shown) [Example 71], for which the IC50 in test [1] is 1700 nM; in test [3] it was 78 nM. In addition, the Emax in test [2] was 40%.
As for `CC1=C(C(=O)OCCCCN2CCN(c3ncccn3)CC2)C(c2ccsc2)C([N+](=O)[O-])=C(C)N1` (stereo not shown) [Example 72], the results for the IC50 in test [1] and in test [3] were 1600 nM and 1000 nM, respectively. In test [2], this molecule showed an EC50 of 12000 nM. Moreover, in test [2], the Emax amounted to 70%.
The corresponding values for `CC1=C(C(=O)OCCN2CCN(c3ncccn3)CC2)C(c2cccs2)C([N+](=O)[O-])=C(C)N1` (stereo not shown) [Example 73] are 2400 nM, 4900 nM, 980 nM and 84%.
Regarding `COc1ccccc1N1CCN(CCOC(=O)C2=C(C)NC(C)=C([N+](=O)[O-])C2c2cccc3nonc23)CC1` (stereo not shown) [Example 75], the IC50 amounted to 85 nM in test [1] and 470 nM in test [3]. This molecule yielded an EC50 in test [2] of 400 nM. In test [2], the Emax is 82%.
The corresponding values for `CC1=C(C(=O)OCCN2CCN(c3ncccn3)CC2)C(c2cccc3nonc23)C([N+](=O)[O-])=C(C)N1` (stereo not shown) [Example 76] are 85 nM, 17000 nM, 56 nM and 156%.
